Source: patent EP0367895A1, “Pyrimidinyl-substituted hydroxyacids, lactones and esters and pharmaceutical compositions containing them” (SANDOZ AG, priority 1988, dated 1990)

How the values were obtained:
[1] = system: 3β-hydroxysterol synthesis; assay: Test B: in vivo cholesterol biosynthesis inhibition test (as described in EP 114 027); details: dose calculated to produce a 50% inhibition of 3β-hydroxysterol synthesis, test doses between 0.01 mg/kg and 10 mg/kg; for ED50: read-out: ED₅₀
Protocol: Test B. In vivo cholesterol biosynthesis inhibition test: as described in EP 114 027:
ED₅₀ is the dose of the test substance calculated to produce a 50% inhibition of 3β-hydroxysterol synthesis. The studies are run to test doses of between 0.01 mg/kg and 10 mg/kg.

[2] = molecular target: T1, 3-hydroxy-3-methylglutaryl coenzyme A (HMG-CoA) reductase (Rattus norvegicus, UniProt P51639); assay: Test A: in vitro microsomal assay of HMG-CoA reductase inhibition (as described in EP 114 027); assay type: biochemical; details: concentration calculated to produce a 50% inhibition of HMG-CoA reductase activity; tests run between 0.05 µM and 1000 µM; read-out: IC₅₀
T1 construct: In vitro microsomal assay of; from tissue; host or cells: Microsomes; it is liver according to own knowledge of EP 114 027
T1 sequence (P51639 1-887): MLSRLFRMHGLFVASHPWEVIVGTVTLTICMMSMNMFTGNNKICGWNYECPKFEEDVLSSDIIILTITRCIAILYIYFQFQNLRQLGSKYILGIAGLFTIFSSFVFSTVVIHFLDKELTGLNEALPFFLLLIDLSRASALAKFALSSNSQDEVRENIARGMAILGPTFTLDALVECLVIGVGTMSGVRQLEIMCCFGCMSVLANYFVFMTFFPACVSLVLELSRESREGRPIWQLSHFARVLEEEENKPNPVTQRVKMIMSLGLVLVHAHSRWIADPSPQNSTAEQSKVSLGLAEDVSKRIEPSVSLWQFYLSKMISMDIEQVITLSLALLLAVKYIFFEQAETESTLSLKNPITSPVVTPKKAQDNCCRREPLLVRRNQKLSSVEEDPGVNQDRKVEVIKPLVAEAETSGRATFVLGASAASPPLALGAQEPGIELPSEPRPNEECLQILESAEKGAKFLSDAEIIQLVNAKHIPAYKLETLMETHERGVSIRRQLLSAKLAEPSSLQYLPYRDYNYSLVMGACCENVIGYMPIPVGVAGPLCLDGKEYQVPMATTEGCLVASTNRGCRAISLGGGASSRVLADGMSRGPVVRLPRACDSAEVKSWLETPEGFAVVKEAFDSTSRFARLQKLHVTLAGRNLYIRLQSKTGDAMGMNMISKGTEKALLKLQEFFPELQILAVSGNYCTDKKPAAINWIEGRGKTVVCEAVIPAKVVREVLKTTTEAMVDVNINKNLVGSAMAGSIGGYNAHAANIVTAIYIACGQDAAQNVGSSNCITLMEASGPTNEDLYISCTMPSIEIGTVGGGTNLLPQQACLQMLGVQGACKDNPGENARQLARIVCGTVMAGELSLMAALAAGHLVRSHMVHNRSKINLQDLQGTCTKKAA
Protocol: Test A. In vitro microsomal assay of 3-hydroxy-3-methylglutaryl coenzyme A (HMG-CoA) reductase inhibition: as described in EP 114 027:
IC₅₀ is the concentration of the test substance in the assay system calculated to produce a 50% inhibition of HMG-CoA reductase activity. The tests are run at concentrations of test substance between 0.05 µM and 1000 µM.

Compound	ED50 [1] [mg/kg]	IC50 [2] [nM]	ED₅₀ [1] [mg/kg]
CC(C)c1nc(N(C)C)nc(-c2ccc(F)cc2)c1/C=C/[C@@H](O)C[C@@H](O)CC(=O)[O-].[Na+] [Example 1b), sodium (3R,5S)-[E]-7-[4-(4-fluoro-phenyl)-6-(1-methylethyl)-2-(dimethylamino)pyrimidin-5-yl]-3,5-dihydroxy-6-heptenoate]	0.028	26	
CC(C)c1nc(N(C)C)nc(-c2ccncc2)c1/C=C/[C@@H](O)C[C@@H](O)CC(=O)O [Example 11d]	0.04	39	
Mevinolin [reference compound]			0.41
